Results reported in publication PMC5833389 (Oncogenesis, 2018).
Where “and” joins values, the source holds several entries; their conditions need not be identical. Equal values may be shown once. Read-outs that look alike come from different tables or passages of the source.

What was measured:
[1] = test system: PC-3 cells; test: Proliferation assay, adherent monolayer, alamarBlue; assay type: cell-based, human; settings: Homo sapiens, PC-3, adherent monolayers
Protocol: PC-3 cells were incubated with compounds for 5 days at 37 °C/5% CO2, stained with alamarBlue® and fluorescence was determined (544 nm/590 nm). Data were analyzed as described above.

[2] = test system: PC-3 cells; test: Clonogenic assay in soft agar (anchorage-independent growth); assay type: cell-based, human; settings: Homo sapiens, PC-3, alamarBlue, read-out: Colony formation EC50 PC-3
Protocol: Clonogenic assays were performed using agarose-containing media. Cells were incubated at 37 °C and 5% CO2 for 14 days. alamarBlue® was used to detect colonies of viable cells (530 nm/590 nm). Data analysis was performed as described above.

[3] = Drug concentrations in plasma and tumor of PC-3 tumor-bearing mice; assay type: in vivo; settings: BomTac:NMRI-Foxn1^nu, mouse; for concentration at 24 h: oral
Excerpt: (§1) Plasma and homogenized tumor samples were extracted and analyzed by LC-MS. Detection was at unit resolution with a MRM 589.2/474.8. All calibration and QC samples were with ±20% (p.o.) and ±30% (i.v.) of the nominal value in the linear range of the calibration fitted with a linear regression and 1/x^2 weighting.

[4] = target: T1, PTK2B/PYK2 (Homo sapiens, UniProt Q14289); test: PYK2 kinase assay, Z'-LYTE (FRET); assay type: biochemical
T1 construct: purchased Invitrogen/Life Technologies
T1 sequence (Q14289 whole entry): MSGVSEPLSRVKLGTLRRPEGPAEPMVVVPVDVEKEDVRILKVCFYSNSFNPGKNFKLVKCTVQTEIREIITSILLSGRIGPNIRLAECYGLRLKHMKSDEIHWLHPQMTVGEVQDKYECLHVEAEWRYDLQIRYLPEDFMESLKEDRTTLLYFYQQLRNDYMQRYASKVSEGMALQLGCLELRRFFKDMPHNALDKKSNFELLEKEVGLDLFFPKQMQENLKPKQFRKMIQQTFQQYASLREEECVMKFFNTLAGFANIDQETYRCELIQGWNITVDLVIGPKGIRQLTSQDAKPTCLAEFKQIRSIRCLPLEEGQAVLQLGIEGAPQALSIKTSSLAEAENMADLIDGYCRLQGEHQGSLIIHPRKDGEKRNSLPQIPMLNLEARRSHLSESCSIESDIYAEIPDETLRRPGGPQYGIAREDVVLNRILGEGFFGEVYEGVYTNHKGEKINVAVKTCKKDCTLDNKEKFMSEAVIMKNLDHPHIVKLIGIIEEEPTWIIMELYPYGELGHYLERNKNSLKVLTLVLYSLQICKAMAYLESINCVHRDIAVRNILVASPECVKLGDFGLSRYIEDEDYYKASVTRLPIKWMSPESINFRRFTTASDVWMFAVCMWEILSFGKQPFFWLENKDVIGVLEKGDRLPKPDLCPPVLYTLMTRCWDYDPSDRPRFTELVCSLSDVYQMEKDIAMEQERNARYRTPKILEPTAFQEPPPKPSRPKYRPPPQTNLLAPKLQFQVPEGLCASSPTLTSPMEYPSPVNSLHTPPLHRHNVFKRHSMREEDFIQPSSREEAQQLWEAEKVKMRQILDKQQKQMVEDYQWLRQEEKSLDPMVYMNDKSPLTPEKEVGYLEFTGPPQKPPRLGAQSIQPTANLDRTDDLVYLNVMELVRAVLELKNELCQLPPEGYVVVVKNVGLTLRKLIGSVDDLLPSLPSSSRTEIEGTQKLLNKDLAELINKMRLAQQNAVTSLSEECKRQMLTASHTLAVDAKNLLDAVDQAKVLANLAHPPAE
Protocol: (§2) IC50 values on FAK and PYK2 were determined using the DELFIA® format, using kinase proteins obtained from Invitrogen (#PV3832, #PV4567) and biotinylated poly(Glu,Tyr) as substrate. Incubation in the presence of test compound was followed by detection of phosphorylated substrate using streptavidin-coated plates and Eu-N1 anti-phospho-Tyr PT66 antibody (#AD0040, VICTOR™ reader, both Perkin Elmer). Data were analyzed using GraphPad Prism. […] Data was fitted by iterative calculation using a sigmoidal curve analysis with variable Hill slope. In independent assays, IC50 values were determined using Z'-LYTE® technology, which is based on FRET (Invitrogen/Life Technologies).

[5] = clinical trials NCT01905111 and NCT01335269; cited from earlier work
[6] = test system: TOV-21G ovary xenograft; test: Subcutaneous xenograft efficacy; assay type: in vivo, mice
Protocol: (§3) For efficacy studies, 1 × 10^7 MIA PaCa-2 or 1 × 10^6 BxPC-3 cells (with Matrigel® 50:50) were injected subcutaneously into the right flank of female BomTac:NMRI-Foxn1^nu mice (age 6 weeks, 24-30 g; Taconic, Denmark). These two and the following tumor models were established from adherently grown cells which were either subcutaneously injected in PBS (LoVo, SW480, A-498, Calu-6, NCI-H2122, A549, SK-OV-3, TOV-21G, AsPC-1, PC-3) or were injected with Matrigel (HCC-461, A2780, PANC-1 and Hs 746 T). For the Caki-1 tumor model tumor fragments were passaged in mice. Mice were randomized according to tumor volume when tumors had reached diameters of 6–8 mm. […] Natrosol-treated animals served as vehicle controls (n = 10). Tumor diameters were measured three times weekly using a caliper and volumes were calculated according to the formula “tumor volume = length × diameter^2 × π/6”. Mice were inspected daily for abnormalities and body weight was determined three times weekly. Animals were euthanized at the end of the study or prematurely, based on criteria including weight loss exceeding 20%, tumor necrosis or tumor volumes exceeding 1500 mm^3.
(§4) Statistical evaluation was performed using SAS 8.2 (SAS Institute, Cary, NC, USA) and Proc StatXact (Cytel Software, Cambridge, MA, USA).
(§5) where Td and Cd denote the median of the tumor volume in the treatment group and the control group at day d, respectively. A one-sided increasing Wilcoxon test was applied to compare each experimental group with the vehicle control, the p values were adjusted for multiple comparisons according to Bonferroni–Holm. The level of significance was fixed at α = 5%. An adjusted p value of <0.05 was considered to show a significant difference between groups.

[7] = test system: HCC-461 lung xenograft; test: Subcutaneous xenograft efficacy; assay type: in vivo, mice
Protocol: as §3, §4, §5

[8] = test system: Calu-6 lung xenograft; test: Subcutaneous xenograft efficacy; assay type: in vivo, mice
Protocol: as §3, §4, §5

[9] = test system: Caki-1 kidney xenograft; test: Subcutaneous xenograft efficacy; assay type: in vivo, mice
Protocol: as §3, §4, §5

[10] = test system: A549 lung xenograft; test: Subcutaneous xenograft efficacy; assay type: in vivo, mice
Protocol: as §3, §4, §5

[11] = test system: SW480 colon carcinoma xenograft; test: Subcutaneous xenograft efficacy; assay type: in vivo, mice
Protocol: as §3, §4, §5

[12] = test system: AsPC-1 pancreas xenograft; test: Subcutaneous xenograft efficacy; assay type: in vivo, mice
Protocol: as §3, §4, §5

[13] = test system: PC-3 prostate carcinoma xenograft; test: Subcutaneous xenograft efficacy; assay type: in vivo, mice
Protocol: as §3, §4, §5

[14] = test system: MIA PaCa-2 pancreas adenocarcinoma xenograft; test: Subcutaneous xenograft efficacy; assay type: in vivo, mice
Protocol: as §3, §4, §5

[15] = test system: A2780 ovary xenograft; test: Subcutaneous xenograft efficacy; assay type: in vivo, mice
Protocol: as §3, §4, §5

[16] = test system: NCI-H2122 lung carcinoma xenograft; test: Subcutaneous xenograft efficacy; assay type: in vivo, mice
Protocol: as §3, §4, §5

[17] = test system: BxPC-3 pancreas adenocarcinoma xenograft; test: Subcutaneous xenograft efficacy; assay type: in vivo, mice; settings: BxPC-3, 50 mg/kg
Protocol: as §3, §4, §5

[18] = test system: Hs 746T stomach xenograft; test: Subcutaneous xenograft efficacy; assay type: in vivo, mice
Protocol: as §3, §4, §5

[19] = test system: PANC-1 pancreas xenograft; test: Subcutaneous xenograft efficacy; assay type: in vivo, mice
Protocol: as §3, §4, §5

[20] = test system: A-498 kidney xenograft; test: Subcutaneous xenograft efficacy; assay type: in vivo, mice
Protocol: as §3, §4, §5

[21] = test system: SK-OV-3 ovarian carcinoma xenograft; test: Subcutaneous xenograft efficacy; assay type: in vivo, mice
Protocol: as §3, §4, §5

[22] = test system: LoVo colon/rectum xenograft; test: Subcutaneous xenograft efficacy; assay type: in vivo, mice
Protocol: as §3, §4, §5

[23] = target: T2, FES (Homo sapiens, UniProt P07332); test: FES kinase assay, Z'-LYTE; assay type: biochemical
T2 construct: purchased Invitrogen/Life Technologies
T2 sequence (P07332 whole entry): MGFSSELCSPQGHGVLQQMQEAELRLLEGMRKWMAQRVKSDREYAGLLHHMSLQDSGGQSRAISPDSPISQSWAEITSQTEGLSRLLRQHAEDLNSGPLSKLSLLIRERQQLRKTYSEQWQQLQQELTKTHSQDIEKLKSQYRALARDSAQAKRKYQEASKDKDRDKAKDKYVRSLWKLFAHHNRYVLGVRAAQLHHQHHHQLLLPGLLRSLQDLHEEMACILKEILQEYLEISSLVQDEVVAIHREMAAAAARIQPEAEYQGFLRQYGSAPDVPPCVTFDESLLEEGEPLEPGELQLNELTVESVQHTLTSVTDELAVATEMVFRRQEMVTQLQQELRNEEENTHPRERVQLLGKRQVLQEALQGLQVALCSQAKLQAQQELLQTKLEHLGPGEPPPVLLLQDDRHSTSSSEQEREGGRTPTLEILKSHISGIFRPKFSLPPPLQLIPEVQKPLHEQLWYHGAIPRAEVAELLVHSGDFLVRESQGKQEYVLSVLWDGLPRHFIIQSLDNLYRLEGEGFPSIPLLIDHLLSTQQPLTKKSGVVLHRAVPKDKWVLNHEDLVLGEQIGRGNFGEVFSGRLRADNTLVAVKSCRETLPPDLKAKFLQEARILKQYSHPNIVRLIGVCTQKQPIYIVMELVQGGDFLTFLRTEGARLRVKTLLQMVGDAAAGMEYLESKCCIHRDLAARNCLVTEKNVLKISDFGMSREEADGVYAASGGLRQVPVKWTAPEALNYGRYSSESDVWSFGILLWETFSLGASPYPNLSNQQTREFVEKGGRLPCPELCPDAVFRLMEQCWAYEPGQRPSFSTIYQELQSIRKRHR
Protocol: as §2, with “Technologies). Selectivity was determined on the Invitrogen kinase panel at 1 µmol/L.” for “Technologies).”

[24] = target: T1, PTK2B/PYK2; test: PYK2 kinase assay, DELFIA format; assay type: biochemical
Protocol: as §2

[25] = target: T3, PAK7 (Homo sapiens, UniProt Q9P286); test: PAK7 kinase assay, Z'-LYTE; assay type: biochemical
T3 construct: purchased Invitrogen/Life Technologies
T3 sequence (Q9P286 whole entry): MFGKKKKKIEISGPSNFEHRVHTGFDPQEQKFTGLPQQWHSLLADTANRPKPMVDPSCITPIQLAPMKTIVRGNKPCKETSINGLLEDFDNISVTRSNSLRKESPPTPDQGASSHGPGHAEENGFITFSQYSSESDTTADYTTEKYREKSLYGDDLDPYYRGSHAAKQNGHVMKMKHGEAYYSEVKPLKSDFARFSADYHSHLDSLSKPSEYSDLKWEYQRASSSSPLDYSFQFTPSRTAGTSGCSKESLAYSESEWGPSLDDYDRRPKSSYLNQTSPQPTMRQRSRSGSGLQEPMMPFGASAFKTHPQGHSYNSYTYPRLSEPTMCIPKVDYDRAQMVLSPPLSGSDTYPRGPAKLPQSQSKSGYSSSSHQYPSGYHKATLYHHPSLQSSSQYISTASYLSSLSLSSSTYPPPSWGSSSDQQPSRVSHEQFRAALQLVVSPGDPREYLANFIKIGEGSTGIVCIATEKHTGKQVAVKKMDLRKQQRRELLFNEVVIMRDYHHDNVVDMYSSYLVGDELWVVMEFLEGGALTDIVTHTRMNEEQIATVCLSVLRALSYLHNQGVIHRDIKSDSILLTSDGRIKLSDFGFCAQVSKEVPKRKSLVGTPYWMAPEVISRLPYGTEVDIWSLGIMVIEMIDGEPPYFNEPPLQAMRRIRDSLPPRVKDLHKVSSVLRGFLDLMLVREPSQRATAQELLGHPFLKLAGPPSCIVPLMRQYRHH
Protocol: as §2, with “Technologies). Selectivity was determined on the Invitrogen kinase panel at 1 µmol/L.” for “Technologies).”

[26] = target: T4, FER (Homo sapiens, UniProt P16591); test: FER kinase assay, Z'-LYTE; assay type: biochemical
T4 construct: purchased Invitrogen/Life Technologies
T4 sequence (P16591 whole entry): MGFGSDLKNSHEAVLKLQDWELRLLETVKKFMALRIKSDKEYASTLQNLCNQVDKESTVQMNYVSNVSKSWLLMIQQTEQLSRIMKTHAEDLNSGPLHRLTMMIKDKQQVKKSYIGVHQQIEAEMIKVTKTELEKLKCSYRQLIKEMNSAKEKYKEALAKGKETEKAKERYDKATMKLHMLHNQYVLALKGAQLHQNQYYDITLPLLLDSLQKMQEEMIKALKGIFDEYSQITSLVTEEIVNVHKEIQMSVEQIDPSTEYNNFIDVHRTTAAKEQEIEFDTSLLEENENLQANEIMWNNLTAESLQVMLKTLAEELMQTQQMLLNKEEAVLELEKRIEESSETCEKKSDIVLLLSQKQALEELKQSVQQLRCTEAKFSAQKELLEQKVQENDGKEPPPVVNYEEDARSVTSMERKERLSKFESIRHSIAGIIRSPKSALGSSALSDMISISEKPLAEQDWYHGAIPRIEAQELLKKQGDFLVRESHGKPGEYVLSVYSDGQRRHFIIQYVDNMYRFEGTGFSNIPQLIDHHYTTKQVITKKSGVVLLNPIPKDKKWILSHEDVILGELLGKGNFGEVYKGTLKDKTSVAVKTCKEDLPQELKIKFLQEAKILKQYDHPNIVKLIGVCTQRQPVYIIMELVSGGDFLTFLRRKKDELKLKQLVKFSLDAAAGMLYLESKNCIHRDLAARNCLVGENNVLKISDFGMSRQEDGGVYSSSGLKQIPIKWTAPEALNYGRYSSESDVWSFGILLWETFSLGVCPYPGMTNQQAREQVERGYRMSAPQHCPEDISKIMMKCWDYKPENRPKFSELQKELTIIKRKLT
Protocol: as §2, with “Technologies). Selectivity was determined on the Invitrogen kinase panel at 1 µmol/L.” for “Technologies).”

[27] = Tolerability of daily oral dosing in nude mice; assay type: in vivo; settings: daily oral doses of 50 mg/kg
Protocol: For efficacy studies, 1 × 10^7 MIA PaCa-2 or 1 × 10^6 BxPC-3 cells (with Matrigel® 50:50) were injected subcutaneously into the right flank of female BomTac:NMRI-Foxn1^nu mice (age 6 weeks, 24-30 g; Taconic, Denmark). […] Mice were randomized according to tumor volume when tumors had reached diameters of 6–8 mm. […] Natrosol-treated animals served as vehicle controls (n = 10). Tumor diameters were measured three times weekly using a caliper and volumes were calculated according to the formula “tumor volume = length × diameter^2 × π/6”. Mice were inspected daily for abnormalities and body weight was determined three times weekly. Animals were euthanized at the end of the study or prematurely, based on criteria including weight loss exceeding 20%, tumor necrosis or tumor volumes exceeding 1500 mm^3.

[28] = Single-dose pharmacokinetics in nude mice; assay type: in vivo
Excerpt: as §1

[29] = test system: panel of 243 cancer cell lines; test: Cancer cell line panel, 2D proliferation (Eurofins Panlabs); assay type: cell-based, human; settings: 2D culture
Protocol: (§6) Drug sensitivity of a panel of human cancer cell lines was tested at Eurofins Panlabs (Bothell, WA, USA). Cells were treated for 72 h, fixed and stained with diaminophenylindole to visualize nuclei and the fluorescence intensity of each well was measured (GE Healthcare IN Cell Analyzer 1000). Relative cell proliferation in compound-treated cultures (signal as percent of control, “POC”) was calculated as follows: POC (t = 72 h) = 100 × fluorescence (compound wells) / fluorescence (control wells). In addition, for each compound-treated culture, the cell count after incubation for 72 h (POC [t = 72 h]) was related to the count at start of treatment (POC [t = 0 h]): POC [t = 0 h] = 100 × fluorescence at t = 0 [control wells]/fluorescence at t = 72 h [control wells]). To calculate concentration–response curves, POC data were analyzed using a four-parameter log-logistic function without upper or lower limitation.

[30] = test system: PC-3; test: as above; assay type: cell-based, human; settings: PC-3, 2D culture, 72 h
Protocol: as §6

[31] = test system: Calu-6 lung adenocarcinoma cells; test: as above; assay type: cell-based, human; settings: Calu-6, 2D culture, 72 h
Protocol: as §6

[32] = test system: NCI-H2110 lung xenograft; test: Subcutaneous xenograft efficacy; assay type: in vivo, mice
Protocol: as §4, §5

[33] = female, BomTac:NMRI-Foxn1^nu, mouse, plasma, single oral dose 50 mg/kg

## COc1cc(C(=O)NC2CCN(C)CC2)c(F)cc1Nc1ncc(C(F)(F)F)c(Oc2cccc3c2C(=O)N(C)C3)n1 [BI 853520]
[1]
  EC50: > 3 µM
[2]
  EC50: 0.003 µM
[3]; PC-3 tumor tissue, 50 mg/kg p.o. qdx4, 24 h after dose on day 4, PC-3 tumors, read-out: concentration in tumor tissue
  concentration at 24 h: 8.9 µM
[3]; PC-3 tumor tissue, po, 50 mg/kg p.o. qdx4, day 4, PC-3 tumors, read-out: time of peak level in tumor tissue
  Tmax: 6 h
[3]; plasma, 50 mg/kg p.o. qdx4, 24 h after dose on day 4, read-out: plasma level
  concentration at 24 h: 1.3 µM
[4]
  IC50: 2 µM
[5]
  oral bioavailability in patients: orally bioavailable
  safety profile in patients: favorable safety profile
[6]; TOV-21G xenograft, Supplement Table 3
  TGI: 93%
[6]; TOV-21G, 50 mg/kg once daily per os
  Median TGI: 93%
[7]; HCC-461, 50 mg/kg once daily per os
  Median TGI: 102%
[7]; HCC-461 xenograft, Supplement Table 3
  TGI: 102%
[8]; Calu-6, 50 mg/kg once daily per os
  Median TGI: 102%
[8]; Calu-6 xenograft, Supplement Table 3
  TGI: 102%
[9]; Caki-1, 50 mg/kg once daily per os
  Median TGI: 66%
[9]; Caki-1 xenograft, Supplement Table 3
  TGI: 66%
[10]; A549, 50 mg/kg once daily per os
  Median TGI: 15 (n.s.) % and 15%
[10]; A549 xenograft, Supplement Table 3
  TGI: 15%
[11]; SW480, 50 mg/kg once daily per os
  Median TGI: 26 (n.s.) % and 26%
[11]; SW480 xenograft, Supplement Table 3
  TGI: 26%
[12]; AsPC-1, 50 mg/kg once daily per os
  Median TGI: 13 (n.s.) % and 13%
[12]; AsPC-1 xenograft, Supplement Table 3
  TGI: 13%
[13]; PC-3, 50 mg/kg once daily per os
  Median TGI: 93%
[13]; PC-3 xenograft, Supplement Table 3
  TGI: 93%
[14]; MIA PaCa-2, 12.5 mg/kg, second independent study
  TGI: 89%
[14]; MIA PaCa-2, 25 mg/kg once daily
  partial regressions: 5 out of 10 tumors
[14]; MIA PaCa-2, 25 mg/kg once daily, first study
  TGI: 94%
[14]; MIA PaCa-2, 25 mg/kg, second independent study
  TGI: 96%
[14]; MIA PaCa-2, 50 mg/kg once daily
  partial regressions: 6 out of 10 tumors
[14]; MIA PaCa-2, 50 mg/kg once daily per os
  Median TGI: 104%
[14]; MIA PaCa-2 xenograft, Supplement Table 3
  TGI: 104%
[15]; A2780, 50 mg/kg once daily per os
  Median TGI: 89%
[15]; A2780 xenograft, Supplement Table 3
  TGI: 89%
[16]; NCI-H2122, 50 mg/kg once daily per os
  Median TGI: 45 (n.s.) % and 45%
[16]; NCI-H2122 xenograft, Supplement Table 3
  TGI: 45%
[17]
  Median TGI: 29%
[18]; Hs 746T xenograft, Supplement Table 3
  TGI: 72%
[18]; Hs 746T, 50 mg/kg once daily per os
  Median TGI: 72%
[19]; PANC-1, 50 mg/kg once daily per os
  Median TGI: 83%
[19]; PANC-1 xenograft, Supplement Table 3
  TGI: 83%
[20]; A-498, 50 mg/kg once daily per os
  Median TGI: 93%
[20]; A-498 xenograft, Supplement Table 3
  TGI: 93%
[21]; SK-OV-3, 50 mg/kg once daily per os
  Median TGI: 57%
[21]; SK-OV-3 xenograft, Supplement Table 3
  TGI: 57%
[22]; LoVo xenograft, Supplement Table 3
  TGI: 14%
[22]; LoVo, 50 mg/kg once daily per os, 50 mg/kg
  Median TGI: 14 (n.s.) % and 14%
[23]
  IC50: 1.04 µM
[24]
  IC50: > 50 µM
[25]
  IC50: > 10 µM
[26]
  IC50: 0.903 µM
[27]
  tolerability (body weight gain, clinical signs): well tolerated
[28]; BomTac:NMRI-Foxn1^nu, mouse, plasma, single intravenous dose 5 mg/kg, female nude mice
  clearance: 2.16 L/h/kg
[28]; BomTac:NMRI-Foxn1^nu, mouse, plasma, single intravenous dose 5 mg/kg, female nude mice, read-out: mean residence time
  MRT: 3 h
[28]; BomTac:NMRI-Foxn1^nu, mouse, plasma, single intravenous dose 5 mg/kg, female nude mice, read-out: volume of distribution
  Vd: 6.6 L/kg
[28]; [33]
  bioavailability: 90%
  half-life: 5 h
[28]; female, BomTac:NMRI-Foxn1^nu, mouse, single oral dose 50 mg/kg, plasma, read-out: time of maximal concentration
  Tmax: 2 h
[28]; single oral dose 50 mg/kg
  AUC: 46 µM·h
[28]; single oral dose 50 mg/kg, plasma
  maximal concentration: 4.4 µmol/L
[29]; Homo sapiens, few cell lines with interpretable sigmoid curves
  EC50: 0.003 to 0.03 µM
[29]; concentrations as high as 1 µmol/L
  effect on proliferation, vast majority of cell lines: not affected
[29]; few cell lines with interpretable sigmoid curves
  maximal inhibition of proliferation: 20–30%
[30]; Homo sapiens
  EC50: 0.01 µM
[30]
  maximal inhibition of proliferation: 20%
[31]
  maximal inhibition of proliferation: 40%
[31]; Homo sapiens
  EC50: 0.003 µM
[32]
  Sensitivity: moderately sensitive (“moderately sensitive” for statistically significant TGI values of 57–83%)
